# From patent US20100184677A1, “USE OF THE HUMAN PANCREATIC POLYPEPTIDE AS A THERAPEUTIC AGENT” (priority 2007, published 2010)
# Assays:
# [1] = tested on: HepG2-2.2.15 cells; assay: Cell viability (dye uptake assay) in HepG2-2.2.15 cells; conditions: HepG2-2.2.15 cells; test peptide 10 micrograms per ml; dye uptake assay (% cell control)
# [2] = tested on: MRC-5 cells; conditions: human, 6 days
# [3] = tested on: Streptococcus pneumoniae; type: cell-based; conditions: 5 micrograms per ml
# [4] = in vitro; conditions: human, MRC-5 cells (embryonal lung fibroblasts)
# [5] = tested on: MRSA; conditions: 5 micrograms per ml
# [6] = tested on: Pseudomonas aeruginosa; type: cell-based; conditions: 5 micrograms per ml
# [7] = in vitro; conditions: human
# [8] = Cell viability (dye uptake assay) in HepG2-2.2.15 cells; conditions: human
smiles,measurement,setting,value
"Nc1ccn([C@@H]2CS[C@H](CO)O2)c(=O)n1 [3TC, Lamivudine, reference compound]",% Cell Viability,[1],95.8%
Nc1nc(O)c2ncn(COC(CO)CO)c2n1 [Ganciclovir],% Cell Viability,[2],100%
CC[C@H](C)[C@H](NC(=O)[C@H](Cc1ccc(O)cc1)NC(=O)[C@H](CCCNC(=N)N)NC(=O)[C@H](CCCNC(=N)N)NC(=O)[C@H](CC(C)C)NC(=O)[C@H](CC(=O)O)NC(=O)[C@H](C)NC(=O)[C@H](C)NC(=O)[C@H](Cc1ccc(O)cc1)NC(=O)[C@H](CCC(N)=O)NC(=O)[C@H](C)NC(=O)[C@H](CCSC)NC(=O)[C@H](CCC(N)=O)NC(=O)[C@H](CCC(=O)O)NC(=O)[C@@H]1CCCN1C(=O)[C@@H](NC(=O)[C@H](C)NC(=O)[C@H](CC(N)=O)NC(=O)[C@H](CC(=O)O)NC(=O)CNC(=O)[C@@H]1CCCN1C(=O)[C@H](Cc1ccc(O)cc1)NC(=O)[C@@H](NC(=O)[C@@H]1CCCN1C(=O)[C@H](CCC(=O)O)NC(=O)[C@H](CC(C)C)NC(=O)[C@@H]1CCCN1C(=O)[C@H](C)N)C(C)C)[C@@H](C)O)C(=O)N[C@@H](CC(N)=O)C(=O)N[C@@H](CCSC)C(=O)N[C@@H](CC(C)C)C(=O)N[C@H](C(=O)N[C@@H](CCCNC(=N)N)C(=O)N1CCC[C@H]1C(=O)N[C@@H](CCCNC(=N)N)C(=O)N[C@@H](Cc1ccc(O)cc1)C(N)=O)[C@@H](C)O [Pancreatic polypeptide],% inhibition,[3],0.0%
same,viability at 144 h,[4],100%
same,% inhibition,[5],0.0%
same,% inhibition,[6],0.0%
same,viability at 10 micrograms per ml,[7],90.2%
same,"viability at 144 h, 10 micrograms per ml",[8],92.5%
